As usually defined, the melting point is the temperature, or range, at which the solid turns liquid.

Data set [1] concerns SMN2 minigene (full length SMN2 minigene mRNA containing SMN2 exon 7). Nature of the data set: SMN2 minigene mRNA splicing RT-qPCR assay in cultured cells. Format: cell-based, human. As to conditions: Homo sapiens, HEK293-H; HEK293H cells stably transfected with SMN2-A minigene; 24 hours; 7-point concentration curve; 1.5-fold relative to vehicle-treated cells; read-out: EC1.5x for production of full length SMN2 mRNA. The gist of the method: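 HEK293H cells stably carrying the SMN2-A minigene treated 24 h at 37° C with compound (DMSO, 200× stock), then lysed. Multiplex RT-qPCR (SMN primers 0.4 μM final; 40 cycles) measures full-length exon 7-containing minigene mRNA, normalized to GAPDH and to vehicle; EC1.5x derived and binned by stars.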
(Real-time PCR tracks product formation cycle by cycle.)

The subject of data set [2] is Smn protein. As to the kind of experiment: Smn protein assay in cultured cells (SMN HTRF). The data set is classed as cell-based, human. As to conditions: 48 hours; for maximum fold (Fold) increase of Smn protein: SMA patient fibroblast cells, 7-point concentration data, fold increase relative to vehicle control (SMN HTRF); for EC1.5x (concentration giving 1.5-fold Smn protein increase): SMA Type 1 patient fibroblast cells (GM03813), 7-point concentration curve, SMN HTRF, concentration producing 1.5 times Smn protein vs DMSO vehicle control, read-out: EC1.5x for Smn protein expression. The gist of the method: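 Lysates in RIPA with protease inhibitors are incubated overnight at room temperature with HTRF anti-SMN antibodies. EC1.5x is derived from fold increase in ΔF over vehicle.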

Some results are limits rather than exact numbers.

In the case of `Cc1ccc2nc(-c3cc4ccc(N(C)CCN(C)C)cc4oc3=O)cn2c1` [Compound 175, 7-{[2-(dimethylamino)ethyl](methyl)amino}-3-(6-methylimidazo[1,2-a]pyridin-2-yl)-2H-chromen-2-one], the melting point is 140 to 180 °C (dec.). Moreover, the EC (1.5-fold) in data set [1] lay within 3 to 30 µM. Also, in data set [2], the “maximum fold (Fold) increase of Smn protein” value (“maximum fold (Fold) increase” below) was “* (maximum fold increase of ≤1.2)”.

For the compound `O=c1oc2cc(N3CCNCC3)ccc2cc1-c1ccc2[nH]ncc2c1` [Compound 91, 3-(1H-indazol-5-yl)-7-(piperazin-1-yl)-2H-chromen-2-one], the melting point was in the range of 250 to 252 °C. The EC (1.5-fold) in data set [1] lay within 0.3 to 1 µM. Also, in data set [2], the “maximum fold (Fold) increase” value was “** (fold increase between >1.2 and ≤1.35)”.

`COCCN1CCN(c2ccc3cc(-c4cc5cc(C)nc(C)c5o4)c(=O)oc3c2)CC1` [Compound 799, 3-(5,7-dimethylfuro[2,3-c]pyridin-2-yl)-7-[4-(2-methoxyethyl)piperazin-1-yl]-2H-chromen-2-one] came in with a melting point of 235 to 237 °C. Besides, the EC (1.5-fold) in data set [1] is under 0.1 µM. Also, in data set [2], the EC1.5x (concentration giving 1.5-fold Smn protein increase) was under 300 nM; the “maximum fold (Fold) increase” value is “**** (fold increase between >1.5 and ≤1.65)”.

The compound `CCN1CCC[C@@H]2CN(c3ccc4cc(-c5cn6cc(C)nc(C)c6n5)c(=O)oc4c3)C[C@@H]21` [Compound 786, 3-(6,8-dimethylimidazo[1,2-a]pyrazin-2-yl)-7-[(4aR,7aR)-1-ethyloctahydro-6H-pyrrolo[3,4-b]pyridin-6-yl]-2H-chromen-2-one] yielded a melting point of 215 to 221 °C. Moreover, the EC (1.5-fold) in data set [1] is under 0.1 µM. For the same compound, in data set [2], the EC1.5x (concentration giving 1.5-fold Smn protein increase) was under 300 nM; the “maximum fold (Fold) increase” value is “**** (fold increase between >1.5 and ≤1.65)”.

In the case of `CN1CCCN(c2ccc3cc(-c4cn5cc(Cl)ccc5n4)c(=O)oc3c2)CC1` [Compound 92, 3-(6-chloroimidazo[1,2-a]pyridin-2-yl)-7-(4-methyl-1,4-diazepan-1-yl)-2H-chromen-2-one], the melting point fell in the range of 186 to 189 °C. In data set [1], the EC (1.5-fold) was in the range of 1 to 3 µM. The “maximum fold (Fold) increase” value in data set [2] is “*** (fold increase between >1.35 and ≤1.5)”.

As to `Cc1nn2cc(-c3cc4ccc(N5CCN[C@@H](C)C5)cc4oc3=O)nc2s1` [Compound 482, 3-(2-methylimidazo[2,1-b][1,3,4]thiadiazol-6-yl)-7-[(3S)-3-methylpiperazin-1-yl]-2H-chromen-2-one], the melting point was in the range of 205 to 209 °C. In data set [1], the EC (1.5-fold) was under 0.1 µM. In data set [2], the EC1.5x (concentration giving 1.5-fold Smn protein increase) is under 300 nM; the “maximum fold (Fold) increase” value is “**** (fold increase between >1.5 and ≤1.65)”.

In turn, `C[C@@H]1CN(c2cc(F)c3cc(-c4cn5ccc(C(F)(F)F)cc5n4)c(=O)oc3c2)C[C@H](C)N1` [Cpd 391, 7-[(3R,5S)-3,5-dimethylpiperazin-1-yl]-5-fluoro-3-[7-(trifluoromethyl)imidazo[1,2-a]pyridin-2-yl]-2H-chromen-2-one] returned a melting point of 210 to 219 °C. Further, the EC (1.5-fold) in data set [1] was 1 to 3 µM. Besides, the “maximum fold (Fold) increase” value in data set [2] is “** (fold increase between >1.2 and ≤1.35)”.

`O=c1oc2cc(N3CCNCC3)ccc2cc1-c1cccc(N2CCCC2)n1` [Cpd 386, 7-(piperazin-1-yl)-3-[6-(pyrrolidin-1-yl)pyridin-2-yl]-2H-chromen-2-one]: the melting point lay in the range of 190 to 192 °C. For the same compound, in data set [1], the EC (1.5-fold) lay within 3 to 30 µM. Further, the “maximum fold (Fold) increase” value in data set [2] is “* (maximum fold increase of ≤1.2)”.

`Cc1cn2cc(-c3cc4ccc(OCCN[C@H](C)CO)cc4oc3=O)nc2c(C)n1` [Compound 946, 3-(6,8-dimethylimidazo[1,2-a]pyrazin-2-yl)-7-(2-{[(2R)-1-hydroxypropan-2-yl]amino}ethoxy)-2H-chromen-2-one] gave a melting point of 185 to 188 °C. In addition, the EC (1.5-fold) in data set [1] is under 0.1 µM. For the same compound, in data set [2], the EC1.5x (concentration giving 1.5-fold Smn protein increase) was under 300 nM; the “maximum fold (Fold) increase” value was “**** (fold increase between >1.5 and ≤1.65)”.

In turn, `CCN(CC)CCOc1ccc2cc(-c3cn4cc(C)nc(C)c4n3)c(=O)oc2c1` [Compound 895, 7-[2-(diethylamino)ethoxy]-3-(6,8-dimethylimidazo[1,2-a]pyrazin-2-yl)-2H-chromen-2-one] returned a melting point of 175 to 177 °C. The EC (1.5-fold) in data set [1] is under 0.1 µM. For the same compound, in data set [2], the EC1.5x (concentration giving 1.5-fold Smn protein increase) was under 300 nM and the “maximum fold (Fold) increase” value was “***** (fold increase >1.65)”.

For the compound `Cc1cn2cc(-c3cc4ccc(CCCNC5CCOC5)cc4oc3=O)nc2c(C)n1` (stereo not shown) [Compound 939, 3-(6,8-dimethylimidazo[1,2-a]pyrazin-2-yl)-7-[3-(tetrahydrofuran-3-ylamino)propyl]-2H-chromen-2-one], the melting point fell in the range of 177 to 180 °C. In data set [1], the EC (1.5-fold) was under 0.1 µM. Also, in data set [2], the EC1.5x (concentration giving 1.5-fold Smn protein increase) is under 300 nM and the “maximum fold (Fold) increase” value was “***** (fold increase >1.65)”.

`CN1CCN(c2ccc3cc(-c4cn5cccnc5n4)c(=O)oc3c2)CC1` [Compound 87, 3-(imidazo[1,2-a]pyrimidin-2-yl)-7-(4-methylpiperazin-1-yl)-2H-chromen-2-one] gave a melting point of over 310 °C. Further, the EC (1.5-fold) in data set [1] lay in the range of 0.3 to 1 µM. For the same compound, in data set [2], the EC1.5x (concentration giving 1.5-fold Smn protein increase) lay in the range of 1000 to 3000 nM; the “maximum fold (Fold) increase” value was “**** (fold increase between >1.5 and ≤1.65)”.

The compound `Cc1cn2cc(-c3cc4ccc(OCCN5CCOCC5)cc4oc3=O)nc2c(C)n1` [Compound 956, 3-(6,8-dimethylimidazo[1,2-a]pyrazin-2-yl)-7-[2-(morpholin-4-yl)ethoxy]-2H-chromen-2-one] had a melting point of 175 to 177 °C. Moreover, in data set [1], the EC (1.5-fold) fell in the range of 0.1 to 0.3 µM. In addition, in data set [2], the EC1.5x (concentration giving 1.5-fold Smn protein increase) was 1000 to 3000 nM and the “maximum fold (Fold) increase” value is given as “***** (fold increase >1.65)”.

In the case of `CC(C)N1CCN(c2ccc3cc(-c4cc5ccccn5n4)c(=O)oc3c2)CC1` [Compound 196, 7-[4-(propan-2-yl)piperazin-1-yl]-3-(pyrazolo[1,5-a]pyridin-2-yl)-2H-chromen-2-one], the melting point fell in the range of 243 to 246 °C. Moreover, in data set [1], the EC (1.5-fold) lay within 1 to 3 µM. Further, the “maximum fold (Fold) increase” value in data set [2] is reported as “* (maximum fold increase of ≤1.2)”.

`Cc1cnc2nc(-c3cc4ccc(N5C[C@@H](C)N[C@@H](C)C5)cc4oc3=O)cn2c1` [Compound 243, 7-[(3R,5S)-3,5-dimethylpiperazin-1-yl]-3-(6-methylimidazo[1,2-a]pyrimidin-2-yl)-2H-chromen-2-one] showed a melting point of 308 to 310 °C. For the same compound, the EC (1.5-fold) in data set [1] was in the range of 0.3 to 1 µM. In data set [2], the EC1.5x (concentration giving 1.5-fold Smn protein increase) was in the range of 3000 to 10000 nM; the “maximum fold (Fold) increase” value was “** (fold increase between >1.2 and ≤1.35)”.

Consider `CCN1CCN(c2ccc3cc(-c4cc5c(C)nc(C)cn5c4)c(=O)oc3c2)CC1` [Compound 674, 3-(1,3-dimethylpyrrolo[1,2-a]pyrazin-7-yl)-7-(4-ethylpiperazin-1-yl)-2H-chromen-2-one], for which the melting point lay in the range of 182 to 185 °C. Moreover, in data set [1], the EC (1.5-fold) is under 0.1 µM. Moreover, in data set [2], the EC1.5x (concentration giving 1.5-fold Smn protein increase) is under 300 nM and the “maximum fold (Fold) increase” value is “***** (fold increase >1.65)”.

The record behind these values is patent USRE47689E1, “Compounds for treating spinal muscular atrophy” (PTC Therapeutics, Inc., priority 2011, dated 2019).
